Source: patent US20230092648A1, “COMBINATION CONTAINING A DUOCARMYCIN DERIVATIVE-COMPRISING ANTIBODY-DRUG CONJUGATE AND THIOSULFATE” (BYONDIS B.V., priority 2020, published 2023)

Conditions: formulations up to a concentration of 0.3 M STS; ocular route

O=S(O)(O)=S [STS, sodium thiosulfate]
adverse findings (local tolerance and toxicity): did not show adverse findings
